Measured values reported in patent US20210395239A1 (Hoffmann-La Roche Inc., priority 2018, published 2021).

Target: T1, human TLR8 (Homo sapiens, UniProt Q9NR97)
T1 construct: host or cells: HEK293 (HEK-Blue hTLR8)
T1 sequence (Q9NR97 27-1041): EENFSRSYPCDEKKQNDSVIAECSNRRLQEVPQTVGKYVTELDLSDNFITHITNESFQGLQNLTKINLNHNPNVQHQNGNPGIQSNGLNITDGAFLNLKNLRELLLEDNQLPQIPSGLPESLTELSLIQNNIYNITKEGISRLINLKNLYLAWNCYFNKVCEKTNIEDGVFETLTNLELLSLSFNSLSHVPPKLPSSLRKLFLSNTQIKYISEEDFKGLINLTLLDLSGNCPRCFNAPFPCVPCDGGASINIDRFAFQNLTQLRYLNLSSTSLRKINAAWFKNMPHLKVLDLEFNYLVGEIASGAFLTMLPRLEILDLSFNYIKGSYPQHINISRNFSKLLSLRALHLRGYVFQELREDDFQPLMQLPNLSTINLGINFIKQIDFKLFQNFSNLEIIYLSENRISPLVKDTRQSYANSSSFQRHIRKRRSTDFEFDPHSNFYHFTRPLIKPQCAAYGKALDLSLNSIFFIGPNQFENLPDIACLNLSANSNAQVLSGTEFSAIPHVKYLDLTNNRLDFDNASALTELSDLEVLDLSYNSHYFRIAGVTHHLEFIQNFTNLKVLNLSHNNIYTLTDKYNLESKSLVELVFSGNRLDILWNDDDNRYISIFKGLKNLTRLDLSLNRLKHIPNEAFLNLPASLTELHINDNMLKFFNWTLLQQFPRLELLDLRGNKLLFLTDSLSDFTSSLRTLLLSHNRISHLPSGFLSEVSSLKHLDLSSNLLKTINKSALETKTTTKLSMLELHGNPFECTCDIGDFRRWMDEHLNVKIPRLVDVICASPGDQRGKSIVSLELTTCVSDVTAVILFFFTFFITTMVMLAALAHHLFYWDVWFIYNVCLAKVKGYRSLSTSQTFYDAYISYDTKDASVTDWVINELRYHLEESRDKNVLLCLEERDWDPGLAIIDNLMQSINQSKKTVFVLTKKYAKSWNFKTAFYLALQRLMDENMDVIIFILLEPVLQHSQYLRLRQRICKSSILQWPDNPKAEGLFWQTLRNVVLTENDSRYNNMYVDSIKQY
Test: HEK293-Blue-hTLR-8 cells assay (SEAP reporter, R848 stimulation)
Format: cell-based
Details: HEK293-Blue-hTLR8 cells, R848, 20 hrs; read-out: HEK/hTLR8 IC50
In short: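 HEK293-Blue-hTLR8 cells (NF-κB/AP-1-driven SEAP) incubated 20 h at 37° C with serially diluted compound (1% DMSO) plus R848 stimulation. Supernatant SEAP measured with QUANTI-Blue, 2 h at 37° C, absorbance 620–655 nm.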

IC50 [µM]	Structure (SMILES)
0.017	[2H]c1ccc2c(N3C[C@H](CN4CCN(c5ncc(N6C[C@@H](N)[C@H](OC)C6)cc5C)CC4)O[C@H](C)C3)ccc(C#N)c2n1 [Example 142, 5-[(2S,6R)-2-[[4-[5-[(3R,4R)-3-amino-4-methoxy-pyrrolidin-1-yl]-3-methyl-2-pyridyl]piperazin-1-yl]methyl]-6-methyl-morpholin-4-yl]-2-deuterio-quinoline-8-carbonitrile]
0.008	[2H]c1ccc2c(N3C[C@H](CN4CCN(c5ccc(N6C[C@@H](N)[C@H](OC)C6)nc5)CC4)O[C@H](C)C3)ccc(C#N)c2n1 [Example 143, 5-[(2S,6R)-2-[[4-[6-[(3R,4R)-3-amino-4-methoxy-pyrrolidin-1-yl]-3-pyridyl]piperazin-1-yl]methyl]-6-methyl-morpholin-4-yl]-2-deuterio-quinoline-8-carbonitrile]
0.001	[2H]c1ccc2c(N3C[C@H](CN4CCN(c5nc(C)cc(N6C[C@@H](N)[C@H](OC)C6)n5)CC4)O[C@H](C)C3)ccc(C#N)c2n1 [Example 144, 5-[(2S,6R)-2-[[4-[4-[(3R,4R)-3-amino-4-methoxy-pyrrolidin-1-yl]-6-methyl-pyrimidin-2-yl]piperazin-1-yl]methyl]-6-methyl-morpholin-4-yl]-2-deuterio-quinoline-8-carbonitrile]
0.014	[2H]c1ccc2c(N3C[C@H](CN4CC(c5cnc(N6CC(C)(N)C6)cc5C)C4)O[C@H](C)C3)ccc(C#N)c2n1 [Example 145, 5-[(2S,6R)-2-[[3-[6-(3-amino-3-methyl-azetidin-1-yl)-4-methyl-3-pyridyl]azetidin-1-yl]methyl]-6-methyl-morpholin-4-yl]-2-deuterio-quinoline-8-carbonitrile]
0.014	[2H]c1ccc2c(N3C[C@H](CN4CC(c5cnc(N6C[C@@H](N)[C@H](OC)C6)cc5C)C4)O[C@H](C)C3)ccc(C#N)c2n1 [Example 146, 5-[(2S,6R)-2-[[3-[6-[(3R,4R)-3-amino-4-methoxy-pyrrolidin-1-yl]-4-methyl-3-pyridyl]azetidin-1-yl]methyl]-6-methyl-morpholin-4-yl]-2-deuterio-quinoline-8-carbonitrile]
0.011	[2H]c1ccc2c(N3C[C@H](CN4CCN(c5ccc(N6CC(C)(N)C6)c(C)n5)CC4)O[C@H](C)C3)ccc(C#N)c2n1 [Example 147, 5-[(2S,6R)-2-[[4-[5-(3-amino-3-methyl-azetidin-1-yl)-6-methyl-2-pyridyl]piperazin-1-yl]methyl]-6-methyl-morpholin-4-yl]-2-deuterio-quinoline-8-carbonitrile]
0.049	Cc1cc(N2CC(C)(N)C2)cnc1N1CCN(C[C@H]2CN(c3ccc(C#N)n4ncc(F)c34)C[C@@H](C)O2)CC1 [Example 148, 4-[(2S,6R)-2-[[4-[5-(3-amino-3-methyl-azetidin-1-yl)-3-methyl-2-pyridyl]piperazin-1-yl]methyl]-6-methyl-morpholin-4-yl]-3-fluoro-pyrazolo[1,5-a]pyridine-7-carbonitrile]
0.012	[2H]c1ccc2c(N3C[C@H](CN4CC(c5ccc(N6C[C@@H](N)[C@H](OC)C6)nc5)C4)O[C@H](C)C3)ccc(C#N)c2n1 [Example 149, 5-[(2S,6R)-2-[[3-[6-[(3R,4R)-3-amino-4-methoxy-pyrrolidin-1-yl]-3-pyridyl]azetidin-1-yl]methyl]-6-methyl-morpholin-4-yl]-2-deuterio-quinoline-8-carbonitrile]
0.007	[2H]c1ccc2c(N3C[C@H](CN4CCN(c5ccc(N6C[C@H](N)[C@@H](F)C6)nc5)CC4)O[C@H](C)C3)ccc(C#N)c2n1 [Example 150, 5-[(2S,6R)-2-[[4-[6-[(3S,4S)-3-amino-4-fluoro-pyrrolidin-1-yl]-3-pyridyl]piperazin-1-yl]methyl]-6-methyl-morpholin-4-yl]-2-deuterio-quinoline-8-carbonitrile]
0.023	[2H]c1ccc2c(N3C[C@H](CN4CCN(c5ccc(N6C[C@@H]7C[C@H]6CN7)nc5)CC4)O[C@H](C)C3)ccc(C#N)c2n1 [Example 151, 2-deuterio-5-[(2S,6R)-2-[[4-[6-[(1S,4S)-2,5-diazabicyclo[2.2.1]heptan-2-yl]-3-pyridyl]piperazin-1-yl]methyl]-6-methyl-morpholin-4-yl]quinoline-8-carbonitrile]
0.017	[2H]c1ccc2c(N3C[C@H](CN4CCN(c5ccc(N6CC7(CNCCO7)C6)nc5)CC4)O[C@H](C)C3)ccc(C#N)c2n1 [Example 152, 2-deuterio-5-[(2R,6S)-2-methyl-6-[[4-[6-(5-oxa-2,8-diazaspiro[3.5]nonan-2-yl)-3-pyridyl]piperazin-1-yl]methyl]morpholin-4-yl]quinoline-8-carbonitrile]
0.019	[2H]c1ccc2c(N3C[C@H](CN4CCN(c5ccc(N6C[C@H]7C[C@@H]6CN7)nc5)CC4)O[C@H](C)C3)ccc(C#N)c2n1 [Example 153, 2-deuterio-5-[(2S,6R)-2-[[4-[6-[(1R,4R)-2,5-diazabicyclo[2.2.1]heptan-2-yl]-3-pyridyl]piperazin-1-yl]methyl]-6-methyl-morpholin-4-yl]quinoline-8-carbonitrile]
0.05	C[C@@H]1CN(c2ccc(C#N)n3ncc(F)c23)C[C@H](CN2CCN(c3ccc(N4CC(C)(N)C4)nc3)CC2)O1 [Example 154, 4-[(2S,6R)-2-[[4-[6-(3-amino-3-methyl-azetidin-1-yl)-3-pyridyl]piperazin-1-yl]methyl]-6-methyl-morpholin-4-yl]-3-fluoro-pyrazolo[1,5-a]pyridine-7-carbonitrile]
0.008	[2H]c1ccc2c(N3C[C@H](CN4CCN(c5cccc(N6CC(C)(N)C6)n5)CC4)O[C@H](C)C3)ccc(C#N)c2n1 [Example 155, 5-[(2S,6R)-2-[[4-[6-(3-amino-3-methyl-azetidin-1-yl)-2-pyridyl]piperazin-1-yl]methyl]-6-methyl-morpholin-4-yl]-2-deuterio-quinoline-8-carbonitrile]
0.024	[2H]c1ccc2c(N3C[C@H](CN4CC(O)(c5ccc(N6CC(C)(N)C6)cc5)C4)O[C@H](C)C3)ccc(C#N)c2n1 [Example 156, 5-[(2S,6R)-2-[[3-[4-(3-amino-3-methyl-azetidin-1-yl)phenyl]-3-hydroxy-azetidin-1-yl]methyl]-6-methyl-morpholin-4-yl]-2-deuterio-quinoline-8-carbonitrile]
0.118	C[C@@H]1CN(c2ccc(C#N)n3nccc23)C[C@H](CN2CC(c3ccc(N4CC(C)(N)C4)nc3)C2)O1 [Example 157, 4-[(2S,6R)-2-[[3-[6-(3-amino-3-methyl-azetidin-1-yl)-3-pyridyl]azetidin-1-yl]methyl]-6-methyl-morpholin-4-yl]pyrazolo[1,5-a]pyridine-7-carbonitrile]
0.037	C[C@@H]1CN(c2ccc(C#N)n3ncc(F)c23)C[C@H](CN2CC(c3ccc(N4CC(C)(N)C4)nc3)C2)O1 [Example 158, 4-[(2S,6R)-2-[[3-[6-(3-amino-3-methyl-azetidin-1-yl)-3-pyridyl]azetidin-1-yl]methyl]-6-methyl-morpholin-4-yl]-3-fluoro-pyrazolo[1,5-a]pyridine-7-carbonitrile]
0.052	[2H]c1ccc2c(N3C[C@H](CN4CC(c5cccc(N6CC(C)(N)C6)n5)C4)O[C@H](C)C3)ccc(C#N)c2n1 [Example 159, 5-[(2S,6R)-2-[[3-[6-(3-amino-3-methyl-azetidin-1-yl)-2-pyridyl]azetidin-1-yl]methyl]-6-methyl-morpholin-4-yl]-2-deuterio-quinoline-8-carbonitrile]
0.068	C[C@@H]1CN(c2ccc(C#N)n3ncc(F)c23)C[C@H](CN2CC(c3ccc(N4CC(C)(N)C4)cc3)C2)O1 [Example 160, 4-[(2S,6R)-2-[[3-[4-(3-amino-3-methyl-azetidin-1-yl)phenyl]azetidin-1-yl]methyl]-6-methyl-morpholin-4-yl]-3-fluoro-pyrazolo[1,5-a]pyridine-7-carbonitrile]
0.008	[2H]c1ccc2c(N3C[C@H](CN4CCN(c5ccc(N6CC7(CN(C)C7)C6)nc5)CC4)O[C@H](C)C3)ccc(C#N)c2n1 [Example 161, 2-deuterio-5-[(2R,6S)-2-methyl-6-[[4-[6-(6-methyl-2,6-diazaspiro[3.3]heptan-2-yl)-3-pyridyl]piperazin-1-yl]methyl]morpholin-4-yl]quinoline-8-carbonitrile]
